Assay results from the supplement of paper PMC5908809.

Key:
[1] = test system: normal NK cells expanded with K562-aAPC; assay: percent inhibition of viability; higher = more inhibition; details: 72 h, IL-2 2.5 ng/mL
Procedure: (§1)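 Drug sensitivity and resistance testing on K562-aAPC-expanded normal NK cells: 5 concentrations (10-fold steps over a 10,000-fold range), 72 h at 37 °C, viability by CellTiter-Glo normalised to DMSO and benzethonium chloride controls; DSS from the fitted curve.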

DERL-7 (IL-2 2.5 ng/mL) [2] = assay: as above; details: 72 h
IMC-1 (IL-2 20 ng/mL) [3] = assay: as above; details: 72 h
KAI3 (IL-2 2.5 ng/mL) [4] = assay: as above; details: 72 h
KHYG-1 (IL-2 2.5 ng/mL) [5] = assay: as above; details: 72 h
NK-92 (IL-2 2.5 ng/mL) [6] = assay: as above; details: 72 h
NK-YS (IL-2 2.5 ng/mL) [7] = assay: as above; details: 72 h
NKL (IL-2 2.5 ng/mL) [8] = assay: as above; details: 72 h
SNK-6 (IL-2 2.5 ng/mL) [9] = assay: as above; details: 72 h
YT (IL-2 2.5 ng/mL) [10] = assay: as above; details: 72 h
[11] = test system: normal primary NK cells, pool 1 (3 donors) (IL-2 2.5 ng/mL); assay: as above; details: 72 h
[12] = test system: normal primary NK cells, pool 1 (3 donors), resting (IL-2 0 ng/mL); assay: as above; details: 72 h
[13] = test system: normal primary NK cells, pool 2 (3 donors) (IL-2 2.5 ng/mL); assay: as above; details: 72 h
[14] = test system: normal primary NK cells, pool 3 (3 donors) (IL-2 2.5 ng/mL); assay: as above; details: 72 h
[15] = test system: normal NK cells expanded with K562-aAPC; assay: drug sensitivity score (DSS) (DSS units); higher = more sensitive; extreme values may be limits of the assay; details: 72 h; IL-2 2.5 ng/mL
Procedure: as §1

DERL-7 (IL-2 2.5 ng/mL) [16] = assay: as above; details: 72 h
IMC-1 (IL-2 20 ng/mL) [17] = assay: as above; details: 72 h
KAI3 (IL-2 2.5 ng/mL) [18] = assay: as above; details: 72 h
KHYG-1 (IL-2 2.5 ng/mL) [19] = assay: as above; details: 72 h
NK-92 (IL-2 2.5 ng/mL) [20] = assay: as above; details: 72 h
NK-YS (IL-2 2.5 ng/mL) [21] = assay: as above; details: 72 h
NKL (IL-2 2.5 ng/mL) [22] = assay: as above; details: 72 h
SNK-6 (IL-2 2.5 ng/mL) [23] = assay: as above; details: 72 h
YT (IL-2 2.5 ng/mL) [24] = assay: as above; details: 72 h
[25] = test system: normal primary NK cells, pool 1 (3 donors) (IL-2 2.5 ng/mL); assay: as above; details: 72 h
[26] = test system: normal primary NK cells, pool 1 (3 donors), resting (IL-2 0 ng/mL); assay: as above; details: 72 h
[27] = test system: normal primary NK cells, pool 2 (3 donors) (IL-2 2.5 ng/mL); assay: as above; details: 72 h
[28] = test system: normal primary NK cells, pool 3 (3 donors) (IL-2 2.5 ng/mL); assay: as above; details: 72 h

CO[C@@H](C(=O)N1Cc2[nH]nc(NC(=O)c3ccc(N4CCN(C)CC4)cc3)c2C1)c1ccccc1 [Danusertib] (max concentration tested 10000 nM)
percent inhibition of viability [%]
Details | 1 nM | 10 nM | 100 nM | 1000 nM | 10000 nM
DERL-7 (IL-2 2.5 ng/mL) [2] | 4.21 | 7.76 | 28.8 | 56.9 | 73.3
IMC-1 (IL-2 20 ng/mL) [3] | -7.01 | -4.49 | 6.37 | 93.6 | 99.5
KAI3 (IL-2 2.5 ng/mL) [4] | -6.41 | -1.03 | 23.9 | 37.9 | 69.3
KHYG-1 (IL-2 2.5 ng/mL) [5] | -6.8 | -6.2 | 5.51 | 66.7 | 86.5
NK-92 (IL-2 2.5 ng/mL) [6] | 4 | 8.37 | 15.1 | 45.9 | 64.6
NK-YS (IL-2 2.5 ng/mL) [7] | -2.39 | -4.33 | 9.93 | 70.3 | 61.7
NKL (IL-2 2.5 ng/mL) [8] | -10.8 | -14.4 | -11 | 20.2 | 64.9
SNK-6 (IL-2 2.5 ng/mL) [9] | -10.1 | -21.1 | -2.34 | 66.7 | 72.5
YT (IL-2 2.5 ng/mL) [10] | -0.26 | -0.92 | 21.1 | 27.8 | 44.9
[1] | 0.09 | -2.41 | -1.99 | 45 | 66.8
[11] | -7.78 | 14.4 | 8.28 | 17.6 | 41.4
[12] | 2.29 | 22.1 | 18.6 | 2.51 | -6.72
[13] | -7.19 | 11.2 | 11.8 | 13.2 | 39.9
[14] | -3.44 | 7.87 | 4.81 | 5.78 | 23.5

Details | drug sensitivity score
DERL-7 (IL-2 2.5 ng/mL) [16] | 14.3
IMC-1 (IL-2 20 ng/mL) [17] | 17.9
KAI3 (IL-2 2.5 ng/mL) [18] | 10
KHYG-1 (IL-2 2.5 ng/mL) [19] | 13.2
NK-92 (IL-2 2.5 ng/mL) [20] | 10.4
NK-YS (IL-2 2.5 ng/mL) [21] | 14.6
NKL (IL-2 2.5 ng/mL) [22] | 6.51
SNK-6 (IL-2 2.5 ng/mL) [23] | 12.2
YT (IL-2 2.5 ng/mL) [24] | 7.27
[15] | 8.98
[25] | 4.29
[26] | 0
[27] | 3.85
[28] | 1.46

C[C@@H]1C[C@H]2[C@@H]3CCC4=CC(=O)C=C[C@]4(C)[C@@]3(F)[C@@H](O)C[C@]2(C)[C@@]1(O)C(=O)CO [Dexamethasone] (max concentration tested 10000 nM)
percent inhibition of viability [%]
Details | 1 nM | 10 nM | 100 nM | 1000 nM | 10000 nM
DERL-7 (IL-2 2.5 ng/mL) [2] | -2.49 | 63.1 | 100 | 101 | 101
IMC-1 (IL-2 20 ng/mL) [3] | -2.17 | -4.52 | -10.6 | -12.7 | -2.61
KAI3 (IL-2 2.5 ng/mL) [4] | -8.83 | -13.5 | -3.07 | -3.87 | 31.2
KHYG-1 (IL-2 2.5 ng/mL) [5] | -1.02 | 14.1 | 39.9 | 50.3 | 69.1
NK-92 (IL-2 2.5 ng/mL) [6] | -14.3 | -20.1 | -19.3 | -2.77 | 5.06
NK-YS (IL-2 2.5 ng/mL) [7] | -5.2 | -1.29 | 1.38 | 4.74 | 18.8
NKL (IL-2 2.5 ng/mL) [8] | 12.3 | 38.1 | 57.3 | 64.1 | 67.1
SNK-6 (IL-2 2.5 ng/mL) [9] | -0.75 | -7.56 | -4.28 | -3.37 | 8.99
YT (IL-2 2.5 ng/mL) [10] | -0.83 | 11.3 | 22.4 | 36.4 | 45.4
[1] | 1.98 | 35.4 | 61.5 | 68.6 | 77.8
[11] | 2.6 | 42 | 68.9 | 80.5 | 86.6
[12] | 8.34 | 65.5 | 83.1 | 84.5 | 86.9
[13] | 2.03 | 37.3 | 63.2 | 69.1 | 74.5
[14] | -8.83 | 19.5 | 43.5 | 50.7 | 58

Details | drug sensitivity score
DERL-7 (IL-2 2.5 ng/mL) [16] | 37.9
IMC-1 (IL-2 20 ng/mL) [17] | 0
KAI3 (IL-2 2.5 ng/mL) [18] | 1.14
KHYG-1 (IL-2 2.5 ng/mL) [19] | 15.6
NK-92 (IL-2 2.5 ng/mL) [20] | 0
NK-YS (IL-2 2.5 ng/mL) [21] | 1.07
NKL (IL-2 2.5 ng/mL) [22] | 24.6
SNK-6 (IL-2 2.5 ng/mL) [23] | 0
YT (IL-2 2.5 ng/mL) [24] | 9.59
[15] | 25.3
[25] | 28.9
[26] | 35.4
[27] | 26
[28] | 17.3
